The values below come from patent US7674451B2, “Cosmetic or pharmaceutical composition comprising peptides, uses and treatment processes” (ISP Investments Inc., priority 2002, dated 2010).

This data set deals with ERG 1-2 molecule. Nature of the data set: Cell differentiation marker ERG 1-2 in HaCat keratinocytes, immunofluorescence. The following applies: HaCat human keratinocytes, 24 hours. Type of data set: cell-based.

Where a SMILES comes first, the peptide text is derived from it.

With `N=C(N)NCCC[C@H](N)C(=O)NCC(=O)N[C@@H](CO)C(=O)O` [Arg-Gly-Ser] (H-Arg-Gly-Ser-OH), the “quantity of ERG molecules present in the cells (intensity of fluorescence)” value is recorded as “increases”.
